# Experiments:
# [1] = Metabolic stability against S9 fraction; type: in vitro ADME; settings: human, liver S9 fraction, against human S9 fraction (footnote), NADPH, 37 °C; read-out: Metabolic Stability t1/2 (converted)
# Description: The metabolic stability of the prodrug was assessed in the mouse liver S9 fraction. Briefly, 5 μg/mL of prodrug was incubated with 1 mg/mL mouse liver S9 fraction supplemented with 1 mg/mL nicotinamide adenine dinucleotide phosphate (NADPH) in Dulbecco’s phosphate-buffered saline at 37 °C. At designated time points (i.e., 0, 0.5, 1, 2 h), 100 μL samples were collected and quenched immediately with 300 μL methanol containing 1 μg/mL internal standard. Samples were vortexed for 30 s and centrifuged at 15,000 rpm for 10 min. Supernatant was assessed by LC/MS.
# [2] = system: HT-1080; assay: TACS MTT cell proliferation / metabolic activity assay in HT-1080; type: cell-based, human; settings: HT-1080, 0.1 to 100 μM
# Description: HEI-OC1 cells derived from the mouse OC (kindly provided by Dr. F. Kalinec) were cultured under permissive conditions (33 °C, 10% CO2) as described in [22]. Additionally, we assessed the activity of Qx-derived compounds in the mouse neuroblastoma cell line, Neuro-2A, and the human fibrosarcoma HT-1080 (ATCC, Manassas, VA, USA) following the standard cell culture guidelines provided by the vendor.
# In vitro cell proliferation effects of all ten initial compounds (Figure 1A,B) were tested on HEI-OC1, Neuro-2A and HT-1080 cells by TACS® 3-(4,5-dimethylthiazol-2-yl)-2,5-diphenyltetrazolium bromide (MTT) Cell Proliferation Assay (R&D Systems, Minneapolis, MN, USA, 4890-025-K), following the manufacturer’s protocol. Absorbance was measured with SpectraMax® M Series Multi-Mode Microplate Reader with Soft Max Pro 7.2 GxP Software (Molecular Devices, Sunnyvale, CA, USA), and the average OD in control cells was taken as 100% of viability. Upon selecting the most viable compounds (Qx-294 and Qx-301), we proceeded with in vivo experiments. For zebrafish treatment, animals were incubated for varied times with different concentrations (50, 100, 150, 200, 250, and 300 μg/mL) of Qx-294 or Qx-301 diluted in swimming (E3) media or administered via IP injections. Mice treatment followed the same procedures as described in [18]. Following treatment, animals or tissue samples were incubated in Click-it EdU or Click-it Plus TUNEL kits (Thermo Scientific, Waltham, MA, USA), following the manufacturer’s instructions to label proliferating and apoptotic cells, respectively.
# [3] = system: plasma protein; assay: Plasma protein binding (rapid equilibrium dialysis); type: in vitro ADME, mice
half-life at 5 μg/mL [1] [min],Plasma protein binding [3],SMILES,Proliferative state across all tested concentrations [2]
546 ± 504,–,"c1ccc2nc(N3CCCC3)cnc2c1 [Qx-301, 2-(pyrrolidine)-quinoxaline]",modest yet active proliferative state
~3420,highly protein-bound,"c1ccc2nc(N3CCOCC3)cnc2c1 [Qx-294, 2-(morpholine)-quinoxaline]",modest yet active proliferative state

# — paper PMC12731105, “Design and Synthesis of New Quinoxaline Analogs to Regenerate Sensory Auditory Hair Cells” (Cells, 2025)
